Results as given in publication PMC6474902, “Examination of novel 4-aminoquinoline derivatives designed and synthesized by a hybrid pharmacophore approach to enhance their anticancer activities” (Scientific Reports, 2019).
Entries after “also recorded” stand apart in the source; their conditions may differ. Read-outs that look alike come from different tables or passages of the source.

Tests used:
HeLa = assay: Combination with bortezomib, cell death; format: cell-based, human; conditions: 48 h post-treatment; BTZ 6 nM, compound 13 0.75 µM, alone or combined
MCF10A = assay: SRB antiproliferative/antigrowth assay, non-cancer cells; format: cell-based, human; conditions: Homo sapiens, MCF-10A, read-out: GI50 MCF10A
Protocol: (§1) The antigrowth effects of 4-piperazinylquinoline sulfonyl analogs on human breast tumor cells was initially evaluated using MDA-MB468 (a PTEN defective, EGFR positive breast adenocarcioma), MDA-MB231 (p53 and pRB mutated, triple-negative breast carcinoma), and MCF7 (p53+/−, invasive ductal breast carcinoma) cell lines. In addition, the cytotoxicity of all the compounds was also evaluated with the 184B5 and MCF10A non-cancer immortalized breast epithelial cell lines, to determine if these newly synthesized compounds have differential cytotoxic effects on cancer and non-cancer cells. The panel of three breast cancer cell lines with different genetic back ground and the well-studied two non-cancer immortalized breast cell lines would provide insights into the efficacy and toxicity of the test compounds in the different genetic background and at different stages of tumor development. The dose response of each cell line was established by determining the number of viable cells after 48 h of continuous drug treatment against seven different concentrations (100 µM to 0.0064 µM) of each compound. The reading of sulphorodamine B (SRB) staining is known to accurately reflect the level of total cellular macromolecules/cell growth/proliferation[6],[23]. […] The data for CQ and cisplatin were included as references. […] The differences in the GI50 values may be attributable to such factors as the nature of the sulfonyl group and the halogen substitution on the 7th position of the 4-piperazinylquinoline ring system, and the genetic and biochemical background of the cell lines.
(§2) Antiproliferative/antigrowth effects were determined by a SRB-based protocol[6],[23]. For a typical screening experiment, 5,000–10,000 cells were inoculated into 100 µL medium per well of a 96-well microtiter plate as described previously. Briefly, after the inoculation, the microtiter plate was incubated at 37 °C, 5% CO2, 95% air and 100% relative humidity for 24 h, prior to addition of experimental drugs. Some of the sample wells were fixed with 25 µL of 50% tricholoroacetic acid (TCA) as a control of the cell population for each cell line at the time of drug addition (Tz). An aliquot of the frozen stock was thawed and diluted to a desired final maximum test-concentration with complete medium. Two to ten-fold serial dilutions were made to provide a total of seven drug concentrations (and a control [C]). Following addition of drugs, the culture plate was incubated for additional 48 h. Cells were fixed in situ by slowly adding 25 µL of ice-cold 50% (w/v) TCA (final concentration, 10% TCA), and were then incubated for 60 min at 4 °C. The supernatant was discarded, and the plate was washed five times with tap water, followed by air-dry. 50 µL of SRB solution at 0.4% (w/v) in 1% acetic acid was added to each well, and the plate was incubated for >30 min at room temperature. Unbound SRB was removed by five washes with tap water, followed by air-drying. The cells “stained” with SRB were solubilized with 10 mM trizma base, and the absorbance was read on an automated plate reader at a wavelength of 515–564 nm. The relative growth rate (%) was calculated for each of the compound concentrations according to the following formula: (Ti−Tz)/(C−Tz)×100
(§3) In the formula, time zero (Tz), control growth (C), and OD for different concentration of tested compounds (Ti). The GI50 for each compound was obtained from a non-linear Sigmoidal dose-response (variable slope) curve which is fitted by GraphPad Prism v.4.03 software. Values were calculated for each of these parameters if the level of activity was reached. However, if the effect was not reached or was exceeded, the value for that parameter was expressed as greater or less than the maximum or minimum concentration tested.

184B5 = assay: as above; format: cell-based, human; conditions: Homo sapiens, 184B5, 48 h, read-out: GI50 184B5
Protocol: as §1, §2, §3

MDA-MB468 = assay: SRB antiproliferative/antigrowth assay; format: cell-based, human; conditions: Homo sapiens, read-out: GI50 MB468
Protocol: as §1, §2, §3

MDA-MB231 = assay: SRB antiproliferative/antigrowth assay; format: cell-based, human; conditions: for GI50: Homo sapiens, read-out: GI50 MB231
Protocol: as §1, §2, §3

MCF7 = assay: SRB antiproliferative/antigrowth assay; format: cell-based, human
Protocol: as §1, §2, §3

lysosomal volume = tested on: lysosomal volume; design: method as in PMID 16137197; conditions: cited from earlier work
[1] = tested on: MDA-MB231, MDA-MB468, MCF7 breast cancer cells; 184B5 and MCF10A non-cancer breast cells; assay: SRB assay, panel of breast cancer and non-cancer breast cell lines; format: cell-based, human; conditions: judged from GI50 values of Table 1
Protocol: as §1, §2, §3

HeLa cells = assay: Sequential treatment with monastrol and compound 13, DNA content; format: cell-based, human; conditions: 100 μM monastrol, 18 h
Protocol: 0 h 2 h post-monastrol 4 h post-monastrol 6 h post-monastrol […]
death. HeLa cells, treated with 100 μM of monastrol for 18 h (defined 0 h), were released into complete medium in the absence (sham) or presence of 10 μM compound 13 (VR23). Note that monastrol arrested cells […]

[2] = SRB, 48 h post-treatment, non-cancer breast epithelial cells
[3] = MDA-MB-468, SRB, 48 h post-treatment, mean of triplicates of at least two experiments
[4] = MDA-MB-231, SRB, 48 h post-treatment, mean of triplicates of at least two experiments
[5] = Homo sapiens, MCF7, SRB, 48 h post-treatment, mean of triplicates of at least two experiments, read-out: GI50 MCF7
[6] = 48 h, SRB, 48 h post-treatment, non-cancer breast epithelial cells
[7] = MDA-MB-468, 48 h, SRB, 48 h post-treatment, mean of triplicates of at least two experiments
[8] = MDA-MB-231, 48 h, SRB, 48 h post-treatment, mean of triplicates of at least two experiments
[9] = Homo sapiens, MCF7, 48 h, SRB, 48 h post-treatment, mean of triplicates of at least two experiments, read-out: GI50 MCF7

SMILES | melting point [°C] | GI50 (MDA-MB468; [7]) [µM] | GI50 (MDA-MB231; [8]) [µM] | GI50 (MCF7; [9]) [µM] | GI50 (184B5) [µM] | preferential antigrowth effect on cancer versus non-cancer cells (in words) [1] | GI50 (MCF10A; [6]) [µM] | GI50 (184B5; [2]) [µM] | further results
CC(C)C[C@H](NC(=O)[C@H](Cc1ccccc1)NC(=O)c1cnccn1)B(O)O [Bortezomib, bortezomib, reference compound] |  |  |  |  |  |  |  |  | cell death (HeLa): neither 6 nM BTZ nor 0.75 µM of compound 13 resulted in substantial HeLa cell death
CCN(CC)CCCC(C)Nc1ccnc2cc(Cl)ccc12 (centres unmarked) [Chloroquine, reference compound] |  |  |  |  | 76.1 ± 1.1 |  |  |  | GI50 (MCF10A; 48 h): 81.3 ± 1.3 µM; GI50 (MDA-MB468; MDA-MB-468, 48 h): 28.6 ± 1.3 µM; GI50 (MDA-MB231; MDA-MB-231, 48 h): 22.5 ± 1.4 µM; GI50 (MCF7; Homo sapiens, MCF7, 48 h, read-out: GI50 MCF7, SRB, 48 h post-treatment, mean of triplicates of at least two experiments): 38.4 µM; GI50 (MCF7; read-out: GI50 MCF7, SRB, 48 h post-treatment, mean of triplicates of at least two experiments): 38.4 ± 1.2 µM; lysosomal volume (lysosomal volume): causes an increase in lysosomal volume
O=[N+]([O-])c1ccc(S(=O)(=O)N2CCN(c3ccnc4cc(C(F)(F)F)ccc34)CC2)c([N+](=O)[O-])c1 [Compound 22, 4-[4-(2,4-Dinitro-benzenesulfonyl)-piperazin-1-yl]-7-trifluoromethyl-quinoline] | 178 to 180 |  |  |  | 37.8 ± 0.4 | effective and preferential antigrowth effects on cancer cells; also recorded: stronger antigrowth/antiproliferation activity against cancer cells than non-cancer cells |  |  | GI50 (MCF10A; [2]): 35.4 ± 0.5 µM; GI50 (MDA-MB468; [3]): 19.2 ± 0.6 µM; GI50 (MDA-MB231; [4]): 24.3 ± 0.6 µM; GI50 (MCF7; [5]): 10.8 ± 0.1 µM
O=[N+]([O-])c1ccc(S(=O)(=O)NCCCNc2ccnc3cc(C(F)(F)F)ccc23)c([N+](=O)[O-])c1 [Compound 40, 2,4-Dinitro-N-[3-(7-trifluoromethyl-quinolin-4-ylamino)-propyl]-benzenesulfonamide] | 198 to 200 |  |  |  | 15.9 ± 0.9 | effective and preferential antigrowth effects on cancer cells; also recorded: stronger antigrowth/antiproliferation activity against cancer cells than non-cancer cells |  |  | GI50 (MCF10A; [2]): 22.3 ± 0.8 µM; GI50 (MDA-MB468; [3]): 8.5 ± 0.4 µM; increase in antigrowth activity against MDA-MB231 compared to mono nitro substituted compounds (30 and 39) (MDA-MB231): 1.7–2.3 fold; GI50 (MDA-MB231; [4]): 8.9 ± 0.8 µM; GI50 (MCF7; [5]): 5.6 ± 0.3 µM
CCOC(=O)C1=C(C)NC(=S)NC1c1cccc(O)c1 (centres unmarked) [monastrol] |  |  |  |  |  |  |  |  | cell cycle arrest (HeLa cells): arrested cells at G2/M

Second part, led by results:

melting point [°C] | GI50 (MDA-MB468; [7]) [µM] | GI50 (MDA-MB231; [8]) [µM] | GI50 (MCF7; [9]) [µM] | SMILES | GI50 (184B5) [µM] | preferential antigrowth effect on cancer versus non-cancer cells (in words) [1] | GI50 (MCF10A; [6]) [µM] | GI50 (184B5; [2]) [µM] | further results
190 to 192 | 4.6 ± 0.4 | 12.7 ± 1 | 2.45 | CN(C)c1cccc2c(S(=O)(=O)NCCCNc3ccnc4cc(Cl)ccc34)cccc12 [Compound 32, 5-Dimethylamino-naphthalene-1-sulfonic acid [3-(7-chloro-quinolin-4-ylamino)-propyl]-amide] |  | loss of preferential antigrowth effects on cancer cells | 2.6 ± 0.1 | 1.7 ± 0.1 | GI50 (MCF7; SRB, 48 h post-treatment, mean of triplicates of at least two experiments, read-out: GI50 MCF7): 2.5 ± 0.1 µM; increase in potency against MCF7 compared to CQ (MCF7; ratio of GI50 values): 15.7 fold
77 to 79 | 6.2 ± 0.4 | 6.4 ± 0.5 | 6.9 ± 0.5 | Cc1ccc(S(=O)(=O)NCCCNc2ccnc3cc(C(F)(F)F)ccc23)cc1 [Compound 35, 4-Methyl-N-[3-(7-trifluoromethyl-quinolin-4-ylamino)-propyl]-benzenesulfonamide] |  | effective and preferential antigrowth effects on cancer cells; also recorded: stronger antigrowth/antiproliferation activity against cancer cells than non-cancer cells | 10.9 ± 0.9 | 12.2 ± 0.9 | 
137 to 139 | 4.6 ± 0.2 | 7.5 ± 0.6 | 4.3 ± 0.2 | COC(=O)c1sccc1S(=O)(=O)NCCCNc1ccnc2cc(C(F)(F)F)ccc12 [Compound 42, 3-[3-(7-Trifluoromethyl-quinolin-4-ylamino)-propylsulfamoyl]-thiophene-2-carboxylic acid methyl ester] |  | effective and preferential antigrowth effects on cancer cells; also recorded: stronger antigrowth/antiproliferation activity against cancer cells than non-cancer cells | 14.4 ± 0.8 | 12.1 ± 0.5 | 
